Laboratory results from US6423519B1, “Compositions and methods for inhibiting fungal growth” (GPC Biotech Inc., priority 1998, dated 2002).
Where two headings read alike, the source gives them in different places.

What was measured:
[1] = biological target: T1, C. albicans GGPTase (Candida albicans, UniProt Q8J224+Q9Y764); assay: biochemical; conditions: read-out: IC50 (nM) Ca GG
T1 sequence (Q9Y764 1-398): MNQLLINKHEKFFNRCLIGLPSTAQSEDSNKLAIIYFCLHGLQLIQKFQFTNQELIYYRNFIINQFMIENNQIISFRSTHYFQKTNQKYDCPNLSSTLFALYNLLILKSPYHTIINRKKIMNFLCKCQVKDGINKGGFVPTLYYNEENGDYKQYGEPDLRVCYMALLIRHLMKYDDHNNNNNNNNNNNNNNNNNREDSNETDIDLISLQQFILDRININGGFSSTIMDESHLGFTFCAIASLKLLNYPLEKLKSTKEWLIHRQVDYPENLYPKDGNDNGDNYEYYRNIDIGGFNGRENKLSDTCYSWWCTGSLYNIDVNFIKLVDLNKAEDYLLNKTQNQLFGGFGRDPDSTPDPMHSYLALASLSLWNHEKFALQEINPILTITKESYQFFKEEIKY
T1 sequence (Q8J224 1-306): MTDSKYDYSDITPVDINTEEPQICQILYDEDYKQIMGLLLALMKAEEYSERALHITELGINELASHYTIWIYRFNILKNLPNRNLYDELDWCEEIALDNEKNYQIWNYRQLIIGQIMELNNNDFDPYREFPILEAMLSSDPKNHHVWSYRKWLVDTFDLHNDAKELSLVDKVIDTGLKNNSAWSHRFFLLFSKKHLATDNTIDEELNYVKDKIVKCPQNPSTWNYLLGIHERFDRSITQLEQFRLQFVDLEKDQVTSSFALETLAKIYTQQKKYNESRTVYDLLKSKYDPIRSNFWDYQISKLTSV
Protocol: Plate test compounds (10 μL per well) at predetermined concentration in 50% DMSO. For background control (blank) and reaction control (negative), add 10 μL of 200 μM GGPP and 10 μL 50% DMSO, respectively. Prepare assay buffer: 50 mM Tris, pH7.5, 20 mM KCL, 5 mM MgCl2, 5 μM ZnCl2, 0.5 mM Zw(3-14), 2 mM DTT and 0.1 mg/mL BSA.
Add 20 μL of C. albicans GGPTase and ^3H-GGPP in assay buffer to test compound. Preincubate enzyme and ^3H-GGPP with test compound for 15 minutes at room temperature. Add 20 μL C. albicans Rho in assay buffer. Incubate for 30 minutes at room temperature. Final assay conditions are 2 nM C. albicans GGPTase, 250 nM ^3H-GGPP and 250 nM C. albicans Rho.
Add 100 μL 15 mM GGPP, 50 mM Tris, pH7.0 and 2% BSA to quench reaction. Transfer reaction to Nickel chelate FlashPlate. Allow his-tagged C. albcians Rho to capture onto plate. Rinse plate 1× with 200 μL 20 mM Tris, pH7.0. Read in TOPCOUNT.

[2] = biological target: Hu FT (Homo sapiens, UniProt P49356); assay: Human FT inhibition (Hu FT); type: biochemical; conditions: Table 3 Piperidine Analogs
[3] = biological target: human GGTase (Homo sapiens, UniProt P53609); assay: Human GGTase inhibition (Hu GG); type: biochemical; conditions: read-out: IC50 (nM) Hu GG
From the text: As described below, a variety of different compounds were synthesized and tested for inhibitory activity against human and Candida GGTase. Exemplary synthesis schemes for generating prenyltransferase inhibitors useful in the methods and compositions of the present invention are shown in FIGS. 1-56. Tables 1-5 provide Structure-Activity relationship (SAR) data for several different classes of prenyltransferase inhibitors.

[4] = tested on: Cryp GG; assay: Cryp GG inhibition; type: biochemical
[5] = tested on: Asp GG; assay: Asp GG inhibition; type: biochemical
[6] = tested on: C. albicans; assay: In vitro susceptibility testing of compounds in C. albicans (MIC); type: cell-based; conditions: for MIC: Candida albicans, read-out: MIC (μg/mL) C alb; for MIC (μg/mL) C alb: Table 1
Protocol: 1: Innoculate strain C. albicans strain such as SC5314 into 20 mL of the appropriate medium and incubate at 35° C. with shaking (220 rpm) overnight
2: Count the C. albicans cells in a 1:10 dilution of the overnight culture using a haemocytometer.
3: Work out the dilution factor required to bring the cell number to 1×10^3 cells/100 μL (equivalent to 1×10^4 cells/mL) then add the required volume of the overnight culture to 25 mL media in a falcon tube.
4: Vortex the diluted cells and immediately pipette 100 μL of the cell suspension to each of the required rows of a 96 well plate using the multipipettor.
5: Prepare each of the 100×stock solutions for the compounds to be tested in DMSO in the required concentration range in Eppendorf tubes.
6: The dilution series for each of the compounds may now be prepared in sequence:
For each compound—start with highest dilution. Add 10 μL compound in DMSO to the 490 μL of appropriate media. Immediately vortex and add 100 μL to the appropraite row of cells on the 96-well plate. Repeat this process for the next and subsequent concentrations of this compound before starting on the dilution series for additional compounds.
7: When complete cover the 96-well plate with an acetate sheet and incubate at 35° C. Inspect visually and record results for both plates at the 24 hr and 48 hr. The MIC corresponds to the concentration of compound where no visible growth is observed.

[7] = tested on: H460 Cell Line; assay: Cytotoxicity of GGPTase inhibitors in human cells, H460 (Sulforhodamine B); type: cell-based; conditions: NCI-H460, 72 h, read-out: IC50 (nM) H460
Protocol: (§1) (A) Plate out cells at predetermined concentration in a volume of 150 μl.
(§2) (B) Allow cells to adhere to plate for twenty four hours
(§3) (C) Add compounds to cells at predetermined concentration (62.5 μg/mL down four-fold, 8 dilutions) n=2
(§4) (D) Cells are exposed to drug for 7 days for the IMR90 Cell Line, and a period of 3 days for the H460 Cell Line.
(E) 1. H460 Cells are fixed in TCA, rinsed, stained with Sulforhodamine B stain, and the stain is solubilized for a final OD read.

[8] = tested on: IMR90 Cell Line; assay: Cytotoxicity of GGPTase inhibitors in human cells, IMR90 (MTT); type: cell-based; conditions: IMR-90, 168 h, read-out: IC50 (nM) IMR90
Protocol: as §1, §2, §3, §4
2. IMR90 Cells have 3-{4,5-Dimethylthiazol-2-yl}-2,5-diphenyltetrazolium bromide (MTT) added to them for three hours prior to final read out. After the three hours, media and MTT are removed and MTT crystals are solubilized in 100% DMSO for final OD read.

IC50 ([1]; Table 3 Piperidine Analogs) [nM]	IC50 [2] [nM]	IC50 ([3]; Table 3 Piperidine Analogs) [nM]	SMILES	also measured
< 100	> 1000	> 1000	N[C@@H](CS)C(=O)N1CCC(C(=O)NCc2cccc(-c3ccccc3)c2)(c2ccccc2)CC1 [Compound 53e]	
< 100	> 1000	> 1000	N[C@@H](CS)C(=O)N1CCC(C(=O)NCCN2CCCC2)(c2ccccc2)CC1 [Compound 53g]	
< 100	> 1000	> 1000	N[C@@H](CS)C(=O)N1CCC(C(=O)NCc2nc3ccccc3[nH]2)(c2ccccc2)CC1 [Compound 53h]	
< 100	> 1000	< 100	CC(C)C[C@H](NC(=O)C1(c2ccccc2)CCN(C(=O)[C@@H](N)CS)CC1)C(N)=O [Compound 53i]	
< 100	> 1000	> 1000	N[C@@H](CS)C(=O)N1CCC(C(=O)NCCCn2ccnc2)(c2ccccc2)CC1 [Compound 53j]	
< 100	> 1000	> 1000	N#CC1CCC(CNC(=O)C2(c3ccccc3)CCN(C(=O)[C@@H](N)CS)CC2)CC1 (stereo partly shown) [Compound 53n]	
< 100	> 1000	< 1000	N[C@@H](CS)C(=O)N1CCC(C(=O)NCc2cccc(OC(F)(F)F)c2)(c2ccccc2)CC1 [Compound 53p]	
< 100	> 1000	> 1000	N[C@@H](CS)C(=O)N1CCC(C(=O)NCc2ccc3c(c2)OCO3)(c2ccccc2)CC1 [Compound 53q]	
< 100	> 1000	> 1000	N[C@@H](CS)C(=O)N1CCC(C(=O)NCc2ccc(F)cc2F)(c2ccccc2)CC1 [Compound 53r]	
< 100	> 1000	> 500	COc1ccccc1CNC(=O)C1(c2ccccc2)CCN(C(=O)[C@@H](N)CS)CC1 [Compound 53u]	
< 100	> 1000	> 500	N[C@@H](CS)C(=O)N1CCC(C(=O)NCc2cccc3ccccc23)(c2ccccc2)CC1 [Compound 53w]	
			NC[C@H](NC(=O)[C@@H](N)CS)C(=O)NCc1cccc2ccccc12 [Compound 89a]	IC50 ([1]; Table 1): < 1000 nM; IC50 ([1]; Table 1 Peptide Analogs): < 1000 nM; IC50 ([4]; Table 1): > 1000 nM; IC50 ([4]; Table 1 Peptide Analogs): > 1000 nM; MIC [6]: > 200 µg/mL; MIC (μg/mL) C alb [6]: >200 µg/mL; IC50 ([3]; Table 1): > 1000 nM; IC50 ([3]; Table 1 Peptide Analogs): > 1000 nM
			NC[C@H](NC(=O)[C@@H](N)CS)C(=O)NCc1cccc(-c2ccccc2)c1 [Compound 89b]	IC50 ([1]; Table 1): < 500 nM; IC50 ([1]; Table 1 Peptide Analogs): < 500 nM; MIC [6]: > 200 µg/mL; MIC (μg/mL) C alb [6]: >200 µg/mL; IC50 ([3]; Table 1): > 1000 nM; IC50 ([3]; Table 1 Peptide Analogs): > 1000 nM
			NC[C@H](NC(=O)[C@@H](N)CS)C(=O)N1CCC(C(=O)NCc2ccncc2)(c2ccccc2)CC1 [Compound 89c]	IC50 ([1]; Table 1): < 1000 nM; IC50 ([1]; Table 1 Peptide Analogs): < 1000 nM; IC50 ([4]; Table 1): > 1000 nM; IC50 ([4]; Table 1 Peptide Analogs): > 1000 nM; IC50 ([3]; Table 1): > 1000 nM; IC50 ([3]; Table 1 Peptide Analogs): > 1000 nM; IC50 ([5]; Table 1): > 1000 nM; IC50 ([5]; Table 1 Peptide Analogs): > 1000 nM

SMILES	IC50 ([1]; Table 3 Piperidine Analogs) [nM]	IC50 [2] [nM]	IC50 ([3]; Table 3 Piperidine Analogs) [nM]	also measured
N[C@@H](CS)C(=O)N1CCC(C(=O)NCCCN2CCOCC2)(c2ccccc2)CC1 [Compound 53f]	< 500	> 1000	> 1000	IC50 ([4]; Table 3 Piperidine Analogs): > 1000 nM; IC50 ([5]; Table 3 Piperidine Analogs): > 1000 nM
N[C@@H](CS)C(=O)N1CCC(C(=O)NCc2ccncc2)(c2ccccc2)CC1 [Compound 53k]	< 10	> 1000	> 1000	IC50 ([4]; Table 3 Piperidine Analogs): > 1000 nM; IC50 ([5]; Table 3 Piperidine Analogs): > 1000 nM
N[C@@H](CS)C(=O)N1CCC(C(=O)NCC(=O)Nc2ccc3ccccc3c2)(c2ccccc2)CC1 [Compound 53o]	< 1000		> 1000	IC50 ([4]; Table 3 Piperidine Analogs): > 1000 nM; IC50 ([5]; Table 3 Piperidine Analogs): > 1000 nM
N[C@@H](CS)C(=O)N1CCC(C(=O)NC2c3ccccc3-c3ccccc32)(c2ccccc2)CC1 [Compound 53z]	< 100	> 1000	> 1000	IC50 ([4]; Table 3 Piperidine Analogs): > 1000 nM; IC50 ([5]; Table 3 Piperidine Analogs): > 1000 nM
C[C@H](N)C(=O)N[C@@H](CS)C(=O)N1CCC(C(=O)NCc2ccncc2)(c2ccccc2)CC1 [Compound 96a]	> 1000		> 1000	IC50 [7]: > 1000 nM; IC50 [8]: > 1000 nM
C[C@H](N)C(=O)N[C@@H](C)C(=O)N[C@@H](CS)C(=O)N1CCC(C(=O)NCc2ccncc2)(c2ccccc2)CC1 [Compound 96b]	< 1000		> 1000	IC50 [7]: > 1000 nM; IC50 [8]: > 1000 nM
